Data: patent US4588720A, “Imidazo[1,2-a]pyrimidines” (Roussel Uclaf, priority 1982, dated 1986)

Legend:
benzodiazepine receptors = assay: Affinity for benzodiazepine receptors ([3H] flunitrazepam radioreceptor binding); conditions: inhibition of specific binding of 0.6 nM [^3 H] flunitrazepam, rat forebrain membrane preparations; read-out: Receptor Binding (IC50 nM)
Method: A. Affinity for benzodiazepine receptors
The affinity of the compounds for benzodiazepine receptors was assessed using the radioligand [^3 H] flunitrazepam and modifications of the original radioreceptor binding method of Squares and Braestrup (Nature, Vol. 266 (1977) p. 732). The values given in Table VI are nanomolar concentrations of test compound which inhibited the specific binding of 0.6 nM[^3 H] flunitrazepam to rat forebrain membrain preparations by 50% (IC50 nM).

[1] = Anxiolytic activity, Geller conflict method (Geller and Seifter); format: in vivo; conditions: po; modified Geller and Seifter conflict method; read-out: Geller Conflict (MED mg/kg po), minimum effective dose at which there was an observed increase in shocks above control
Method: Screening for anxiolytic activity was carried out by modifications of the conflict method of Geller and Seifter (Psychopharmacologia, (1960), Volume I, p. 482). The values given in Table VI are the minimum effective doses at which there was an observed increase in shocks above control (MED me/kg po).

For COc1nc2nc(C(=O)c3ccccc3)cn2c2c1CCCC2 [Example 1, (5-methoxy-6,7,8.9-tetrahydroimidazo[1,2-a]quinazolin-2-yl)phenylmethanone], which IC50 (benzodiazepine receptors) is on record?
Its IC50 is 61 nM.

What about the minimal effective dose [1] of the same compound?
Its minimal effective dose is 5 mg/kg.

What does the source list for COc1cc(C)n2cc(C(=O)c3ccccc3)nc2n1 [Example 3, (7-Methoxy-5-methylimidazol[1,2-a]pyrimidin-2-yl)-phenyl methanone]?
IC50 (benzodiazepine receptors): 800 nM; minimal effective dose [1]: 5 mg/kg

For COc1nc2nc(C(=O)c3ccccc3)cn2c2c1CCC2 [Example 4, (5-Methoxycyclopenta[e]imidazol[1,2-a]pyrimidin-2-yl)-phenylmethanone], which IC50 (benzodiazepine receptors) is on record?
Its IC50 is 200 nM.

And the minimal effective dose [1]?
The minimal effective dose was 20 mg/kg.

With CSc1nc2nc(C(=O)c3ccccc3)cn2c2c1CCC2 [Example 6, [5-(Methylthio)cyclopenta[e]imidazo[1,2-a]pyrimidin-2-yl]phenylmethanone] as the compound, how does the IC50 (benzodiazepine receptors) read?
Its IC50 is 35 nM.

What about the minimal effective dose [1] of the same compound?
The minimal effective dose was 2 mg/kg.

With COc1nc2nc(C(=O)c3ccccc3)cn2c(C)c1C [Example 7, (7-Methoxy-5,6-dimethylimidazo[1,2-a]pyrimidin-2-yl)phenylmethanone] as the compound, how does the IC50 (benzodiazepine receptors) read?
Its IC50 is 235 nM.

What about the minimal effective dose [1] of the same compound?
Its minimal effective dose is 50 mg/kg.

Which results are given for COc1nc2nc(C(=O)c3ccccc3)cn2c2c1CCCCC2 [Example 8]?
IC50 (benzodiazepine receptors): 125 nM; minimal effective dose [1]: 10 mg/kg

Which IC50 (benzodiazepine receptors) does the source give for COc1nc2nc(C(=O)c3ccccc3)cn2c(C)c1Cc1ccccc1 [Example 9, (6-Benzyl-7-methoxy-5-methylimidazo[1,2-a]pyrimidin-2-yl)phenylmethanone] here?
The IC50 was 45 nM.

What about the minimal effective dose [1] of the same compound?
Its minimal effective dose is 50 mg/kg.

Which results are given for CCOc1nc2nc(C(=O)c3ccccc3)cn2c2c1CCCCC2 [Example 10]?
IC50 (benzodiazepine receptors): 4000 nM; minimal effective dose [1]: 5 mg/kg

Which results are given for COc1nc2nc(C(=O)c3ccccc3)cn2c(C)c1C(C)C [Example 11, (7-Methoxy-5-methyl-6-(1-methylethyl)imidazo[1,2-a]pyrimidin-2-yl)phenylmethanone]?
IC50 (benzodiazepine receptors): 37 nM; minimal effective dose [1]: 2 mg/kg

With CSc1nc2nc(C(=O)c3ccccc3)cn2c2c1CCCC2 [Example 12, [5-(Methylthio)-6,7,8,9-tetrahydroimidazo[1,2-a]quinazolin-2-yl]phenylmethanone] as the compound, how does the IC50 (benzodiazepine receptors) read?
The IC50 was 8.5 nM.

What about the minimal effective dose [1] of the same compound?
Its minimal effective dose is 10 mg/kg.

With CCSc1nc2nc(C(=O)c3ccccc3)cn2c2c1CCC2 [Example 13, [5-(Ethylthio)cyclopenta[e]imidazo[1,2-a]pyrimidin-2-yl]phenylmethanone] as the compound, how does the IC50 (benzodiazepine receptors) read?
The IC50 was 1850 nM.

And the minimal effective dose [1]?
Its minimal effective dose is 50 mg/kg.

For CCCc1cc(OC)nc2nc(C(=O)c3ccccc3)cn12 [Example 14, (7-Methoxy-5-propylimidazo[1,2-a]pyrimidin-2-yl)phenylmethanone], which IC50 (benzodiazepine receptors) is on record?
The IC50 was 535 nM.

And the minimal effective dose [1]?
The minimal effective dose was 1 mg/kg.

Which results are given for CCc1cc(OC)nc2nc(C(=O)c3ccccc3)cn12 [Example 15, (5-Ethyl-7-methoxyimidazo[1,2-a]pyrimidin-2-yl)phenylmethanone]?
IC50 (benzodiazepine receptors): 295 nM; minimal effective dose [1]: 2 mg/kg

For CCc1c(OC)nc2nc(C(=O)c3ccccc3)cn2c1C [Example 16, (6-Ethyl-7-methoxy-5-methylimidazo[1,2-a]pyrimidin-2-yl)phenylmethanone], which IC50 (benzodiazepine receptors) is on record?
The IC50 was 56 nM.

What about the minimal effective dose [1] of the same compound?
The minimal effective dose was 2 mg/kg.

With COc1nc2nc(C(=O)c3ccccc3)cn2c2c1CCC(C)C2 (stereo not drawn) [Example 17, (5-Methoxy-8-methyl-6,7,8,9-tetrahydroimidazo[1,2-a]quinazolin-2-yl]phenylmethanone] as the compound, how does the IC50 (benzodiazepine receptors) read?
The IC50 was 135 nM.

And the minimal effective dose [1]?
The minimal effective dose was 10 mg/kg.

With CSc1nc2nc(C(=O)c3ccccc3)cn2c2c1CCC(C)C2 (stereo not drawn) [Example 18, [8-Methyl-5-(methylthio)-6,7,8,9-tetrahydroimidazo[1,2-a]quinzolin-2-yl]phenylmethanone] as the compound, how does the IC50 (benzodiazepine receptors) read?
The IC50 was 76 nM.

What about the minimal effective dose [1] of the same compound?
Its minimal effective dose is 50 mg/kg.

Which results are given for CCCCCCc1c(OC)nc2nc(C(=O)c3ccccc3)cn2c1C [Example 19, (6-n-Hexyl-7-methoxy-5-methylimidazo[1,2-a]pyrimidin-2-yl)phenylmethanone]?
IC50 (benzodiazepine receptors): 180 nM; minimal effective dose [1]: 20 mg/kg

For C=CCc1c(OC)nc2nc(C(=O)c3ccccc3)cn2c1C [Example 20, (6-Allyl-7-methoxy-5-methylimidazo[1,2-a]pyrimidin-2-yl)phenylmethanone], which IC50 (benzodiazepine receptors) is on record?
The IC50 was 45 nM.

What about the minimal effective dose [1] of the same compound?
The minimal effective dose was 4 mg/kg.

Which IC50 (benzodiazepine receptors) does the source give for CSc1cc(C)n2cc(C(=O)c3ccccc3)nc2n1 [Example 21, [5-Methyl-7-(methylthio)imidazo[1,2-a]pyrimidin-2-yl]phenylmethanone] here?
Its IC50 is 190 nM.

And the minimal effective dose [1]?
Its minimal effective dose is 50 mg/kg.

With CCCc1cc(SC)nc2nc(C(=O)c3ccccc3)cn12 [Example 22, [7-(Methylthio)-5-propylimidazo[1,2-a]pyrimidin-2-yl]phenylmethanone] as the compound, how does the IC50 (benzodiazepine receptors) read?
The IC50 was 89 nM.

And the minimal effective dose [1]?
Its minimal effective dose is 50 mg/kg.

With COc1nc2nc(C(=O)c3ccccc3)cn2c(C)c1CC1CC1 [Example 23, [6-Cyclopropylmethyl-7-methoxy-5-methylimidazo[1,2-a]pyrimidin-2-yl]phenylmethanone] as the compound, how does the IC50 (benzodiazepine receptors) read?
The IC50 was 30 nM.

And the minimal effective dose [1]?
The minimal effective dose was 10 mg/kg.

For COc1nc2nc(C(=O)c3ccccc3)cn2c(C)c1CC1CCCCC1 [Example 24, [6-Cyclohexylmethyl-7-methoxy-5-methylimidazo[1,2-a]pyrimidin-2-yl]phenylmethanone], which IC50 (benzodiazepine receptors) is on record?
Its IC50 is 250 nM.

And the minimal effective dose [1]?
The minimal effective dose was 50 mg/kg.

Which results are given for CCOc1nc2nc(C(=O)c3ccccc3)cn2c(C)c1CC [Example 25, [7-Ethoxy-6-ethyl-5-methylimidazo[1,2-a]pyrimidin-2-yl]phenylmethanone]?
IC50 (benzodiazepine receptors): 1900 nM; minimal effective dose [1]: 50 mg/kg

Which results are given for CCCc1c(C)c(OC)nc2nc(C(=O)c3ccccc3)cn12 [Example 26, [7-Methoxy-6-methyl-5-propylimidazo[1,2-a]pyrimidin-2-yl]phenylmethanone]?
IC50 (benzodiazepine receptors): 740 nM; minimal effective dose [1]: 20 mg/kg

Which results are given for CCCc1c(CC)c(OC)nc2nc(C(=O)c3ccccc3)cn12 [Example 27, [6-Ethyl-7-methoxy-5-n-propylimidazo[1,2-a]pyrimidin-2-yl]phenylmethanone]?
IC50 (benzodiazepine receptors): 470 nM; minimal effective dose [1]: 50 mg/kg

Which IC50 (benzodiazepine receptors) does the source give for CCc1c(SC)nc2nc(C(=O)c3ccccc3)cn2c1CC [Example 52, [5,6-Diethyl-7-(methylthio)imidazo[1,2-a]pyrimidin-2-yl]phenylmethanone] here?
The IC50 was 12 nM.

For CCCc1c(SC)nc2nc(C(=O)c3ccccc3)cn2c1CC [Example 53, [5-Ethyl-7-(methylthio)-6-n-propylimidazo[1,2-a]pyrimidin-2-yl]phenylmethanone], which IC50 (benzodiazepine receptors) is on record?
Its IC50 is 47 nM.

For CCc1c(OC)nc2nc(C(=O)c3cccs3)cn2c1C [Example 60, 6-ethyl 7-methoxy 5-methylimidazo/1,2-a/pyrimidin-2-yl(2-thienyl)methanone], which minimal effective dose [1] is on record?
The minimal effective dose was 50 mg/kg.

Which minimal effective dose [1] does the source give for CCc1c(OC)nc2nc(C(=O)c3ccccn3)cn2c1C [Example 61, (6-ethyl 7-methoxy 5-methylimidazo/1,2-a/pyrimidin-2-yl)(2-pyridinyl)methanone] here?
Its minimal effective dose is 50 mg/kg.

Which minimal effective dose [1] does the source give for CCc1c(OC)nc2nc(C(=O)c3ccc(F)cc3)cn2c1C [Example 62, (6-ethyl 7-methoxy 5-methylimidazo/1,2-a/pyrimidin-2-yl)(4-fluorophenyl)methanone] here?
Its minimal effective dose is 10 mg/kg.

Which minimal effective dose [1] does the source give for CCc1c(OC)nc2nc(C(=O)c3cccc(C(F)(F)F)c3)cn2c1C [Example 63, (6-ethyl 7-methoxy 5-methylimidazo/1,2-a/pyrimidin-2-yl)/(3-trifluoromethyl)phenyl/methanone] here?
The minimal effective dose was 50 mg/kg.

With CCc1c(OC)nc2nc(C(C)=O)cn2c1C [Example 64, 1-(6-ethyl 7-methoxy 5-methylimidazo/1,2-a/pyrimidin-2-yl)ethanone] as the compound, how does the minimal effective dose [1] read?
The minimal effective dose was 50 mg/kg.
